Results published in patent publication US20190367516A1 (Bayer Pharma Aktiengesellschaft, priority 2015, published 2019).
Like-named read-outs stand apart in the source and are kept apart here.

Target: T1, human M2 receptor (Homo sapiens, UniProt P08172)
T1 sequence (P08172 1-466): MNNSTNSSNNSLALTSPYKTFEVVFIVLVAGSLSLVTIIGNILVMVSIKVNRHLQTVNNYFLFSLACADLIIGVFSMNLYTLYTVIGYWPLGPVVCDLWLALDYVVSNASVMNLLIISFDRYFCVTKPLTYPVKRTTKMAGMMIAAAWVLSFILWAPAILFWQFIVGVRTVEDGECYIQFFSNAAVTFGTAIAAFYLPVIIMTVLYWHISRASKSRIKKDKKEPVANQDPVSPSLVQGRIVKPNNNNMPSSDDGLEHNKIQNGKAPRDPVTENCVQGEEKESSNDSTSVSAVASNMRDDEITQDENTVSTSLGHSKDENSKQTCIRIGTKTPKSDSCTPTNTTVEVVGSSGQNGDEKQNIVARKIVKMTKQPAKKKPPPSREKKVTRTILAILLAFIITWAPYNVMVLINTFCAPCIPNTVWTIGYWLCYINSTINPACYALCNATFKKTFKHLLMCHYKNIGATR
Conditions: for EC50: Receptor activity EC50, allosteric potency at EC20 acetylcholine, in some cases mean of two or more determinations

[1] = read-out: Efficiency, boosting of the acetylcholine effect at EC20 acetylcholine concentration, M2-GIRK1/4 reporter cells

SMILES | EC50 (M2-GIRK1/4 reporter cells) | Emax [1] | Emax (read-out: Efficiency)
CC1CN(c2ccc3c(=O)c(C(=O)N[C@@H](C4CC4)C(F)(F)F)cn(-c4c(F)cc(F)cc4F)c3n2)C(=O)O1 (mixture of isomers) [Example 436, N-[(1 S)-1-Cyclopropyl-2,2,2-trifluoroethyl]-7-[5-methyl-2-oxo-1,3-oxazolidin-3-yl]-4-oxo-1-(2,4,6-trifluorophenyl)-1,4-dihydro-1,8-naphthyridine-3-carboxamide] | 81 nM | 94% | 
O=C(NC(CC(F)(F)F)C1CC1)c1cn(-c2c(F)cc(F)cc2F)c2nc(N3C[C@@H](O)[C@H](O)C3)ccc2c1=O (mixture of isomers) [Example 438, N-[1-Cyclopropyl-3,3,3-trifluoropropyl]-7-[(3R,4R)-3,4-dihydroxypyrrolidin-1-yl]-4-oxo-1-(2,4,6-trifluorophenyl)-1,4-dihydro-1,8-naphthyridine-3-carboxamide] | 37 nM | 99.5% | 
CC(NC(=O)c1cn(-c2c(F)cc(F)cc2F)c2nc(N3C[C@@H](O)[C@H](O)C3)ccc2c1=O)(C1CC1)C(F)(F)F (mixture of isomers) [Example 441, N-[2-Cyclopropyl-1,1,1-trifluoropropan-2-yl]-7-[(3R,4R)-3,4-dihydroxypyrrolidin-1-yl]-4-oxo-1-(2,4,6-trifluorophenyl)-1,4-dihydro-1,8-naphthyridine-3-carboxamide] | 15 nM | 100% | 
CCC(COC(F)(F)F)NC(=O)c1cn(-c2c(F)cc(F)cc2F)c2nc(N3C[C@@H](C)NC3=O)ccc2c1=O (mixture of isomers) [Example 453, 7-[(4R)-4-Methyl-2-oxoimidazolidin-1-yl]-4-oxo-N-[(2S)-1-(trifluoromethoxy)butan-2-yl]-1-(2,4,6-trifluorophenyl)-1,4-dihydro-1,8-naphthyridine-3-carboxamide] | 11 nM | 98.5% | 
CC(NC(=O)c1cn(-c2c(F)cc(F)cc2F)c2nc(N3C[C@@H](C)NC3=O)ccc2c1=O)C(F)(F)C(F)(F)F (mixture of isomers) [Example 458, 7-[(4R)-4-Methyl-2-oxoimidazolidin-1-yl]-4-oxo-N-[3,3,4,4,4-pentafluorobutan-2-yl]-1-(2,4,6-trifluorophenyl)-1,4-dihydro-1,8-naphthyridine-3-carboxamide] | 3 nM | 100% | 
O=C(N[C@@H](C1CC1)C(F)(F)F)c1cn(-c2c(F)cc(F)cc2F)c2nc(N3CCOC(CO)C3)ccc2c1=O (mixture of isomers) [Example 463, N-[(1 S)-1-Cyclopropyl-2,2,2-trifluoroethyl]-7-[2-(hydroxymethyl)morpholin-4-yl]-4-oxo-1-(2,4,6-trifluorophenyl)-1,4-dihydro-1,8-naphthyridine-3-carboxamide] | 54 nM | 89% | 
CC(NC(=O)c1cn(-c2c(F)cc(F)cc2F)c2nc(N3C[C@@H](O)CC3=O)ccc2c1=O)C1CCC1 (mixture of isomers) [Example 471, N-[1-Cyclobutylethyl]-7-[(4S)-4-hydroxy-2-oxopyrrolidin-1-yl]-4-oxo-1-(2,4,6-trifluorophenyl)-1,4-dihydro-1,8-naphthyridine-3-carboxamide] | 10 nM | 89% | 
CC(NC(=O)c1cn(-c2c(F)cc(F)cc2F)c2nc(N3C[C@@H](O)[C@H](O)C3)ccc2c1=O)C1CCC1 (mixture of isomers) [Example 476, N-[1-Cyclobutylethyl]-7-[(3R,4R)-3,4-dihydroxypyrrolidin-1-yl]-4-oxo-1-(2,4,6-trifluorophenyl)-1,4-dihydro-1,8-naphthyridine-3-carboxamide] | 18 nM | 98% | 
CCC(NC(=O)c1cn(-c2c(F)cc(F)cc2F)c2nc(N3C[C@@H](O)[C@H](O)C3)ccc2c1=O)C(C)C (mixture of isomers) [Example 487, 7-[(3R,4R)-3,4-Dihydroxypyrrolidin-1-yl]-N-[2-methylpentan-3-yl]-4-oxo-1-(2,4,6-trifluorophenyl)-1,4-dihydro-1,8-naphthyridine-3-carboxamide] | 12 nM | 96.5% | 
O=C(NC(C1CCC1)C(F)(F)F)c1cn(-c2c(F)cc(F)cc2F)c2nc(N3C[C@@H](O)CC3=O)ccc2c1=O (mixture of isomers) [Example 505, N-[1-Cyclobutyl-2,2,2-trifluoroethyl]-7-[(4S)-4-hydroxy-2-oxopyrrolidin-1-yl]-4-oxo-1-(2,4,6-trifluorophenyl)-1,4-dihydro-1,8-naphthyridine-3-carboxamide] | 6 nM | 100% | 
CC(NC(=O)c1cn(-c2c(F)cc(F)cc2F)c2nc(N3C[C@@H](O)CC3=O)ccc2c1=O)(C1CC1)C(F)(F)F (mixture of isomers) [Example 508, N-[2-Cyclopropyl-1,1,1-trifluoropropan-2-yl]-7-[(4S)-4-hydroxy-2-oxopyrrolidin-1-yl]-4-oxo-1-(2,4,6-trifluorophenyl)-1,4-dihydro-1,8-naphthyridine-3-carboxamide] | 7 nM | 93.5% | 
O=C(NC(CC(F)(F)F)C1CC1)c1cn(-c2c(F)cc(F)cc2F)c2nc(N3C[C@@H](O)CC3=O)ccc2c1=O (mixture of isomers) [Example 512, N-[1-Cyclopropyl-3,3,3-trifluoropropyl]-7-[(4S)-4-hydroxy-2-oxopyrrolidin-1-yl]-4-oxo-1-(2,4,6-trifluorophenyl)-1,4-dihydro-1,8-naphthyridine-3-carboxamide] | 10 nM | 100% | 
CCC(NC(=O)c1cn(-c2c(F)cc(F)cc2F)c2nc(N3C[C@@H](O)CC3=O)ccc2c1=O)C(F)(F)C(F)(F)F (mixture of isomers) [Example 519, 7-[(4S)-4-Hydroxy-2-oxopyrrolidin-1-yl]-4-oxo-N-[1,1,1,2,2-pentafluoropentan-3-yl]-1-(2,4,6-trifluorophenyl)-1,4-dihydro-1,8-naphthyridine-3-carboxamide] | 3 nM | 96.7% | 
CCC(NC(=O)c1cn(-c2c(F)cc(F)cc2F)c2nc(N3C[C@@H](O)[C@H](O)C3)ccc2c1=O)C(F)(F)C(F)(F)F (mixture of isomers) [Example 522, 7-[(3R,4R)-3,4-Dihydroxypyrrolidin-1-yl]-4-oxo-N-[1,1,1,2,2-pentauoropentan-3-yl]-1-(2,4,6-trifluorophenyl)-1,4-dihydro-1,8-naphthyridine-3-carboxamide] |  |  | 92.8%
CC(C)C(NC(=O)c1cn(-c2c(F)cc(F)cc2F)c2nc(N3C[C@@H](O)CC3=O)ccc2c1=O)C(F)(F)F (mixture of isomers) [Example 526, 7-[(4S)-4-Hydroxy-2-oxopyrrolidin-1-yl]-4-oxo-N-[1,1,1-trifluoro-3-methylbutan-2-yl]-1-(2,4,6-trifluorophenyl)-1,4-dihydro-1,8-naphthyridine-3-carboxamide] | 9 nM | 100% | 
CC(NC(=O)c1cn(-c2c(F)cc(F)cc2F)c2nc(N3C[C@@H](O)CC3=O)ccc2c1=O)C(F)(F)C(F)(F)F (mixture of isomers) [Example 529, 7-[(4S)-4-Hydroxy-2-oxopyrrolidin-1-yl]-4-oxo-N-[3,3,4,4,4-pentafluorobutan-2-yl]-1-(2,4,6-trifluorophenyl)-1,4-dihydro-1,8-naphthyridine-3-carboxamide] | 6 nM | 96% | 
O=C(NC(c1ccccc1Cl)C(F)(F)F)c1cn(-c2c(F)cc(F)cc2F)c2nc(N3C[C@@H](O)CC3=O)ccc2c1=O (mixture of isomers) [Example 532, N-[1-(2-Chlorophenyl)-2,2,2-trifluoroethyl]-7-[(4S)-4-hydroxy-2-oxopyrrolidin-1-yl]-4-oxo-1-(2,4,6-trifluorophenyl)-1,4-dihydro-1,8-naphthyridine-3-carboxamide] | 18 nM | 92% | 
CC(C)C(NC(=O)c1cn(-c2c(F)cc(F)cc2F)c2nc(N3CCNC3=O)ccc2c1=O)C(F)(F)F (racemic) [Example 536, 4-Oxo-7-(2-oxoimidazolidin-1-yl)-N-[1,1,1-trifluoro-3-methylbutan-2-yl]-1-(2,4,6-trifluorophenyl)-1,4-dihydro-1,8-naphthyridine-3-carboxamide] | 16 nM | 99.5% | 
CC(NC(=O)c1cn(-c2c(F)cc(F)cc2F)c2nc(N3CCNC3=O)ccc2c1=O)C(F)(F)C(F)(F)F (racemic) [Example 540, 4-Oxo-7-(2-oxoimidazolidin-1-yl)-N-[3,3,4,4,4-pentafluorobutan-2-yl]-1-(2,4,6-trifluorophenyl)-1,4-dihydro-1,8-naphthyridine-3-carboxamide] | 9 nM | 90% | 
CC(NC(=O)c1cn(-c2c(F)cc(F)cc2F)c2nc(N3C[C@@H](O)[C@H](O)C3)ccc2c1=O)C(F)(F)C(F)(F)F (mixture of isomers) [Example 549, 7-[(3R,4R)-3,4-Dihydroxypyrrolidin-1-yl]-4-oxo-N-[3,3,4,4,4-pentafluorobutan-2-yl]-1-(2,4,6-trifluorophenyl)-1,4-dihydro-1,8-naphthyridine-3-carboxamide] |  |  | 100%
CC(C)C(NC(=O)c1cn(-c2c(F)cc(F)cc2F)c2nc(N3C[C@@H](O)[C@H](O)C3)ccc2c1=O)C(F)(F)F (mixture of isomers) [Example 552, 7-[(3R,4R)-3,4-Dihydroxypyrrolidin-1-yl]-4-oxo-N-[1,1,1-trifluoro-3-methylbutan-2-yl]-1-(2,4,6-trifluorophenyl)-1,4-dihydro-1,8-naphthyridine-3-carboxamide] | 14 nM | 96% | 
